Each block holds one compound with its values, some of them ahead of it.
Experiments:
[1] = Inhibition of Wnt/beta-catenin signalling in HEK293 cells assessed as reduction in luciferase activity incubated for 24 hrs by TOPFlash luciferase reporter assay; assay type: cell-based; details: Homo sapiens, HEK293, 24 h
[2] = target: Acyl-protein thioesterase 2 (Homo sapiens, UniProt O95372); experiment: Inhibition of APT2 (unknown origin)
[3] = Inhibition of SPT (unknown origin); design: species or system Homo sapiens
[4] = target: T1, Membrane-bound ghrelin O-acyltransferase MBOAT4 (Homo sapiens, UniProt Q96T53); experiment: Inhibition of GOAT (unknown origin)
T1 sequence (Q96T53 whole entry): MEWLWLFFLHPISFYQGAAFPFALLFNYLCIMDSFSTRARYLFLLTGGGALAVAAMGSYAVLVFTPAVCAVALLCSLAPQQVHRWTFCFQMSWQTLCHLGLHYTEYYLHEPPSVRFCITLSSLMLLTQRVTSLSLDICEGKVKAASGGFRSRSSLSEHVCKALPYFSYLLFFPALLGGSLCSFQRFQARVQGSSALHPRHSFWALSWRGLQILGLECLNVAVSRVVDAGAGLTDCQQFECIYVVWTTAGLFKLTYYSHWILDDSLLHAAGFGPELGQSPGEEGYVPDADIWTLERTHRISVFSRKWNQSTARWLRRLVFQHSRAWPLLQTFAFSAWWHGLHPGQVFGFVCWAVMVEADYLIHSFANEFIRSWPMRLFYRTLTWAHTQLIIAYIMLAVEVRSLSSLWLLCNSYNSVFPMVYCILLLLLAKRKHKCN

[5] = target: T2, Phosphatidylserine lipase ABHD16A (Homo sapiens, UniProt O95870); experiment: Inhibition of recombinant human ABHD16A expressed in HEK293T cells incubated for 1 hr by fluorescence based analysis; assay type: cell-based
T2 sequence (O95870 whole entry): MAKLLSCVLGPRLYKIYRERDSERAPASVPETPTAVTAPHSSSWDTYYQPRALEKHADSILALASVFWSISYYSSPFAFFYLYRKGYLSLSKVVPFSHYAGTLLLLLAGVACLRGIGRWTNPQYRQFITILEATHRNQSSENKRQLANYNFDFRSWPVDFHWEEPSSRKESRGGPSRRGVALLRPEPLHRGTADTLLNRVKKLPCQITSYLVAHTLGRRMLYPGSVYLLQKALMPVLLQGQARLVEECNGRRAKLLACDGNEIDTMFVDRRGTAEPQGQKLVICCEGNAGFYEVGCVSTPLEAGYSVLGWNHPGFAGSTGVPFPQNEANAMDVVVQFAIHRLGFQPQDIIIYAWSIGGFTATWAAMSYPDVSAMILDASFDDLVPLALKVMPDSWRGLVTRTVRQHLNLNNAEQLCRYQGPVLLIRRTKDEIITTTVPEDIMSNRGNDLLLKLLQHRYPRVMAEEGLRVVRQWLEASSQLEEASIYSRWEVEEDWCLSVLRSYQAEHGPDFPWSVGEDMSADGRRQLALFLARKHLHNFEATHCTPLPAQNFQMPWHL

[6] = target: T3, Palmitoyl-protein thioesterase ABHD10, mitochondrial (Homo sapiens, UniProt Q9NUJ1); experiment: Inhibition of ABHD10 (unknown origin)
T3 sequence (Q9NUJ1 whole entry): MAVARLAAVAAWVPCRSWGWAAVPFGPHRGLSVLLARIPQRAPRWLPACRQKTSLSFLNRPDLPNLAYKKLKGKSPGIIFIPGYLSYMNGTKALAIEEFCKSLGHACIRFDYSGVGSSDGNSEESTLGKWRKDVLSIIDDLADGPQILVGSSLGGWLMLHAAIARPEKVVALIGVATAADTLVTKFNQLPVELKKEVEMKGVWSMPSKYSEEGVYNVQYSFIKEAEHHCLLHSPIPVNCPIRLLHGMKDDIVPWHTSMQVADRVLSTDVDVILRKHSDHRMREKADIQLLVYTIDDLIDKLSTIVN

[7] = target: T4, Carnitine O-palmitoyltransferase 1, muscle isoform (Homo sapiens, UniProt Q92523); experiment: Inhibition of CPT1B (unknown origin) in KB cells; assay type: cell-based
T4 sequence (Q92523 whole entry): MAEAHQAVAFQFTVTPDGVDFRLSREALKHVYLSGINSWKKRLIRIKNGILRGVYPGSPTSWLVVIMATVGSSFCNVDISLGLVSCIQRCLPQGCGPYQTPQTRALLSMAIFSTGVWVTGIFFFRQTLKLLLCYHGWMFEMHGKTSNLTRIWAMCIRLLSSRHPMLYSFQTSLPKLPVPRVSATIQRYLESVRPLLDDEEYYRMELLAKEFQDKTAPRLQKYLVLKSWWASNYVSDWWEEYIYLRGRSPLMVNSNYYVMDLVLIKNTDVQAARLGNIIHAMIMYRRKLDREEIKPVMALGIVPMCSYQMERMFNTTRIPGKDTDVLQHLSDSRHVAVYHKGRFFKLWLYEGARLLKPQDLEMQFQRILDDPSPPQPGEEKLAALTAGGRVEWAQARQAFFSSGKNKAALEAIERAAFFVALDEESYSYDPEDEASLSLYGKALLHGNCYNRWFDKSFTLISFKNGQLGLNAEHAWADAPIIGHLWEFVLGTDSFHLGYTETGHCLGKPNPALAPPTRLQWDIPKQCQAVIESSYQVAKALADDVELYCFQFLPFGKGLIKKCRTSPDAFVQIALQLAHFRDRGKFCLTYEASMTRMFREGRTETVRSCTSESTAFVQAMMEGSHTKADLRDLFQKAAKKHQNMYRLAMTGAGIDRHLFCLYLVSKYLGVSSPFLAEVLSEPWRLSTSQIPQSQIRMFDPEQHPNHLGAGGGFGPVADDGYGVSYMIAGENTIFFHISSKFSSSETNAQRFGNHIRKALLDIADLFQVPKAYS

[8] = Inhibition of Wnt/beta-catenin signalling in Wnt3a stimulated HEK293 cells assessed as reduction in luciferase activity incubated for 24 hrs by TOPFlash luciferase reporter assay; assay type: cell-based; details: Homo sapiens, HEK293, 24 h
cells = details: Homo sapiens, HEK-293T, 24 h

Acyl-protein thioesterase 2, sequence (O95372 whole entry): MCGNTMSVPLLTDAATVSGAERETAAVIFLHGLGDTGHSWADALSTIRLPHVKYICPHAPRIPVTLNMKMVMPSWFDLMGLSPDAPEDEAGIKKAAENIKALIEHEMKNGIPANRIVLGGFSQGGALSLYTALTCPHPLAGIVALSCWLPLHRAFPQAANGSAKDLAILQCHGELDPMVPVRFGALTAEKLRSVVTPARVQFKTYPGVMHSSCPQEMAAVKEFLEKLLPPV

IC50 [1]: 15 nM
Compound: Cc1ccc2nc(NC(=O)CSc3nc4c(c(=O)n3C)SC(C)C4)sc2c1 (configuration not stated)

IC50 [2]: 36.7 nM
Compound: CCCCCCCCCC[C@@H]1OC(=O)[C@H]1CCCCS(=O)(=O)CCCN(C)C

IC50 [2]: 23.7 nM
Compound: C#CCCCCCCCC[C@@H]1C(=O)O[C@H]1CCc1ccc(OC)c(OC)c1

IC50 [3]: 21 nM
Compound: CC(C)CCCC(=O)CCCCCCC(=O)CCN(O)C(=O)[C@@H](N)CO

IC50 [3]: 20 nM
Compound: CCCCCC[C@@H](O)CCCCCC/C=C/[C@H](O)[C@@H](O)[C@H](O)[C@H](N)C(=O)O

IC50 [1]: 16 nM
Compound: O=S(=O)(c1ccc2oc(-c3cccnc3)nc2c1)c1ccc2oc(-c3cccnc3)nc2c1

IC50 [4]: 1500 nM
Compound: CCCCCCCC(C)(O)/C=C/[C@H](NC(=O)OCc1ccccc1)C(=O)OC (some centres not stated)

IC50 [3]: 224 nM
Compound: CCCCCC[C@@H](O)CCCCCCCC[C@@H](O)[C@H](N)C(=O)O

IC50 [3]: 24 nM
Compound: CCCCCC[C@@H](O)CCCCCCCCC[C@H](CO)C(=O)O

IC50 [4]: 170 nM
Compound: Cc1nc(N)c2c(CCc3ccc(C(=O)O)cc3)coc2n1

IC50 [5]: ≥ 10000 nM
Compound: NC(=O)CCCC/C=C1\C(=O)OC1CCc1ccccc1 (configuration not stated)

IC50 [6]: 210 nM
Compound: CC[C@@]1(c2cccc(C)c2)C(=O)N(C(=O)OC)N1C(=O)OC

Compound: COc1nn(-c2ccc(F)cc2)c(=O)o1
IC50 [5]: 30 nM

IC50 [7]: 16000 nM
Compound: O=C(O)C(=O)c1ccc(OCCOc2ccc3ccccc3c2)s1

IC50 [8]: 20 nM
Compound: O=C(Cn1cc(I)c(=O)c(I)c1)Nc1ccc(-c2ccccc2)cn1

IC50 [6]: 100 nM
Compound: COc1ccc([C@@]23Oc4cc(OC)cc(OC)c4[C@]2(O)[C@@H]2OC(=O)[C@@H]2[C@H]3c2ccccc2)cc1

IC50 [2]: 19.6 nM
Compound: CCCCCCCCCC[C@@H]1C(=O)O[C@H]1CCc1ccc(OC)c(OC)c1 [PALMOSTATIN B]

IC50 [1]: 710 nM
Compound: CCc1cc(=O)oc2c(C)c(OCC(=O)Nc3ccc(N4CCCCC4)cc3)ccc12

IC50 [1]: 28 nM
Compound: Cc1ccc2nc(NC(=O)CSc3nc4c(c(=O)n3-c3ccccc3)SCC4)sc2c1

IC50 (cells): 0.2 nM
Compound: Cc1cc(-c2ncc(CC(=O)Nc3ccc(-c4cnccn4)cn3)cc2C)ccn1 [WNT-974]

IC50 [5]: 60 nM
Compound: COc1nn(-c2cccc([N+](=O)[O-])c2)c(=O)o1

IC50 [5]: 200 nM
Compound: CCCCCCCCCCCCCC1OC(=O)/C1=C\CCCCC(N)=O (configuration not stated)

From ChEMBL document CHEMBL5523703, “Modulators for palmitoylation of proteins and small molecules” (Eur J Med Chem, 2024)
